Experimental data published in the supplement of paper PMC11061612.

Legend:
[1] = tested on: NB13 (Neuroblastoma); test: combination Emax (second highest fraction inhibited in the dose matrix, 72 h); higher = more inhibition; extreme values may be limits of the assay
Method in brief: (§1)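 Cell lines in DMEM/F12 or RPMI with 10% FBS were plated in 1536-well plates, held 24 hours at 37°C, 5% CO2, then given two-drug dose matrices for 72 hours (DMSO typically 0.2%). Viability was read by CellTiter-Glo 2.0 luminescence and scaled as inhibition from 0 (vehicle wells) to 1 (blank wells). Combination Emax is the second-highest inhibition in the matrix; Bliss excess is observed combination effect minus expected EA + EB − EA·EB, EA and EB being single-agent effects.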

[2] = tested on: DMS-53 (Small Cell Lung Carcinoma); test: as above
Method in brief: as §1

[3] = tested on: HCC1428 (Breast Carcinoma); test: as above
Method in brief: as §1

[4] = tested on: DU-4475 (Breast Carcinoma); test: as above
Method in brief: as §1

[5] = tested on: JVM-2 (B-Cell Non-Hodgkin's Lymphoma); test: as above
Method in brief: as §1

[6] = tested on: NB13 (Neuroblastoma); test: Bliss excess, mean over the matrix (fraction); higher = more synergy
Method in brief: as §1

[7] = tested on: NCI-H1651 (Lung Adenocarcinoma); test: as above
Method in brief: as §1

[8] = tested on: A101D (Melanoma); test: as above
Method in brief: as §1

[9] = tested on: 5637 (Bladder Carcinoma); test: as above
Method in brief: as §1

[10] = tested on: KYSE-140 (Esophageal Squamous Cell Carcinoma); test: as above
Method in brief: as §1

[11] = tested on: SK-HEP-1 (Hepatocellular Carcinoma); test: as above
Method in brief: as §1

[12] = tested on: CA46 (Burkitt's Lymphoma); test: as above
Method in brief: as §1

[13] = tested on: ESO26 (Esophageal Adenocarcinoma); test: as above
Method in brief: as §1

[14] = tested on: Jurkat (T-Lymphoblastic Leukemia); test: as above
Method in brief: as §1

[15] = tested on: UACC-812 (Breast Carcinoma); test: as above
Method in brief: as §1

[16] = tested on: SW620 (Colorectal Carcinoma); test: as above
Method in brief: as §1

[17] = tested on: NCI-H441 (Lung Adenocarcinoma); test: as above
Method in brief: as §1

[18] = tested on: PEO1 (Ovarian Carcinoma); test: as above
Method in brief: as §1

[19] = tested on: EB2 (Burkitt's Lymphoma); test: as above
Method in brief: as §1

[20] = tested on: JHH-2 (Hepatocellular Carcinoma); test: as above
Method in brief: as §1
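Throughout, for Bliss excess, mean over the matrix: after 72 h of two-drug dosing.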

SMILES	combination Emax [1]	combination Emax [2]	combination Emax [3]	combination Emax [4]	combination Emax [5]	Bliss excess [6]	Bliss excess [7]	Bliss excess [8]	Bliss excess [9]	Bliss excess [10]	Bliss excess [11]	Bliss excess [12]	Bliss excess [13]	Bliss excess [14]	Bliss excess [15]	Bliss excess [16]	Bliss excess [17]	Bliss excess [18]	Bliss excess [19]	Bliss excess [20]
Cn1cnc2c(F)c(Nc3ccc(Br)cc3Cl)c(C(=O)NOCCO)cc21 [Selumetinib] + CC(C)n1c(=O)n(C)c2cnc3cc(F)c(-c4ccc(OCCCN5CCCCC5)nc4)cc3c21 [AZD1390] (first compound max 10 µM, 7x7, partner max 0.3 µM)	0.0733	0.132	0.169	1	0.352	-0.0532	-0.0305	-0.0246	-0.0226	-0.0337	-0.0043	-0.006	-0.0471	-0.0321	-0.0436	-0.0102	-0.0394	-0.0118	-0.0532	-0.0357
Cn1cnc2c(F)c(Nc3ccc(Br)cc3Cl)c(C(=O)NOCCO)cc21 [Selumetinib] + CCN(CCO)CCCOc1ccc2c(Nc3cc(CC(=O)Nc4cccc(F)c4)[nH]n3)ncnc2c1 [AZD2811] (first compound max 10 µM, 7x7, partner max 1 µM)	0.367	0.158	0.297	1	0.633	-0.0829	-0.0283	-0.0718	0.0276	-0.0554	-0.0421	-0.0093	-0.0374	-0.0216	-0.049	0.0738	-0.0565	-0.0252	-0.0564	-0.0193
Cn1cnc2c(F)c(Nc3ccc(Br)cc3Cl)c(C(=O)NOCCO)cc21 [Selumetinib] + C[C@@H]1COCCN1C2=NC(=NC(=C2)C3(CC3)[S@](=N)(=O)C)C4=C5C=CNC5=NC=C4 [AZD6738] (first compound max 10 µM, 7x7, partner max 10 µM)	0.855	0.151	0.187	1	0.825	-0.0446	-0.0638	-0.0548	0.0382	-0.0888	-0.034	-0.0159	-0.0189	-0.0227	-0.0397	0.0587	0.0498	-0.0357	-0.071	0.0264
CC(=O)Nc1cccc(-n2c(=O)n(C3CC3)c(=O)c3c(Nc4ccc(I)cc4F)n(C)c(=O)c(C)c32)c1 [Trametinib] + Cc1nc(-c2cn3c(n2)-c2ccc(-c4cnn(C(C)(C)C(N)=O)c4)cc2OCC3)n(C(C)C)n1 [Taselisib] (first compound max 1 µM, 7x7, partner max 10 µM)	0.428	0.294	0.278	1	0.746	0.0088	0.0354	0.0168	0.292	-0.0046	0.0781	0.0404	0.147	0.0414	0.0522	0.0527	0.102	0.204	0.0658	-0.0221
CC1(C)CCC(CN2CCN(c3ccc(C(=O)NS(=O)(=O)c4ccc(NCC5CCOCC5)c([N+](=O)[O-])c4)c(Oc4cnc5[nH]ccc5c4)c3)CC2)=C(c2ccc(Cl)cc2)C1 [Venetoclax] + C1CN(CCC1(C(=O)N[C@@H](CCO)C2=CC=C(C=C2)Cl)N)C3=NC=NC4=C3C=CN4 [Capivasertib] (first compound max 1 µM, 7x7, partner max 3 µM)	0.465	0.361	0.119	0.246	0.661	-0.0288	-0.0184	-0.0652	-0.0513	-0.018	-0.0525	-0.0473	-0.0751	-0.016	-0.0212	-0.0511	-0.0707	-0.0564	-0.0286	0.0139
CC1(C)CCC(CN2CCN(c3ccc(C(=O)NS(=O)(=O)c4ccc(NCC5CCOCC5)c([N+](=O)[O-])c4)c(Oc4cnc5[nH]ccc5c4)c3)CC2)=C(c2ccc(Cl)cc2)C1 [Venetoclax] + C=CCn1c(=O)c2cnc(Nc3ccc(N4CCN(C)CC4)cc3)nc2n1-c1cccc(C(C)(C)O)n1 [AZD1775] (first compound max 1 µM, partner max 1 µM)	0.928	0.694	0.22	1	0.97	0.078	-0.0218	-0.0188	-0.0414	-0.0037	-0.0252	-0.0322	-0.0373	-0.0183	-0.0681	-0.0536	0.002	-0.0325	0.063	0.0531
CC1(C)CCC(CN2CCN(c3ccc(C(=O)NS(=O)(=O)c4ccc(NCC5CCOCC5)c([N+](=O)[O-])c4)c(Oc4cnc5[nH]ccc5c4)c3)CC2)=C(c2ccc(Cl)cc2)C1 [Venetoclax] + CCN(CCO)CCCOc1ccc2c(Nc3cc(CC(=O)Nc4cccc(F)c4)[nH]n3)ncnc2c1 [AZD2811] (first compound max 1 µM, 7x7, partner max 1 µM)	0.548	0.482	0.451	0.404	0.681	0.0534	0.0011	-0.0182	-0.0229	-0.0045	-0.0621	-0.0283	-0.0262	0.0202	-0.0283	-0.0243	-0.044	-0.0314	-0.0357	-0.038
